Data: patent US5254584A, “N-acetonylbenzamides and their use as fungicides” (Rohm and Haas Company, priority 1992, dated 1993)
In brackets after ≈: the same amount, converted by molar mass.

Columns and labels:
tomato plants = assay: In vivo phytotoxic activity, foliar spray, tomato; design: key: +: indicating presence of a plant growth regulatory effect as compared to a control to which a solvent mixture (acetone/water/methanol) lacking the test compound was applied; 0: A zero indicates no apparent effect; conditions: foliar spray 2200 g/Ha, seven days after application
Method: The compounds of Examples 1 and 12 were tested in vivo for phytotoxic activity by applying the compounds to the foliage of cucumber, tomato, bean, lettuce and strawberry plants as a spray at a rate of 2200 g/Ha. The plants were evaluated seven days after spray application of the compounds.
Phototoxicity scores are set forth below in Table 6. The phytotoxicity scores use a symbol, "+", indicating presence of a plant growth regulatory effect as compared to a control to which a solvent mixture (acetone/water/methanol) lacking the test compound was applied. A zero indicates no apparent effect. Each score is a composite representing the mode value for three replicate plants.

Botrytis cinerea [1] = assay: Fungitoxicity assay against Botrytis cinerea (in vitro, colony diameter); format: cell-based; conditions: 48 hours at 25° C., read-out: Botrytis EC50
Method: The compounds of Examples 1-20 were tested in vitro for fungicidal activity and phytotoxicity. A. The compounds were tested in vitro for fungicidal activity against Pythium ultimum, Botrytis cinerea and Venturia inaequalis. Fungitoxicity assay against Botrytis cinerea: […] The mixtures were poured immediately into 9 centimeter (cm) diameter petri dishes. Two replicate plates were used for each treatment. Each plate was inoculated with a 7 mm diameter plug taken from the growing edge of a 5 day old culture of B. cinerea on potato dextrose agar. […] Results of the testing for fungicidal activity against the above named fungi are set forth below in Table 3 as Pythium EC50 (ppm), Botrytis EC50 (ppm) and Venturia MIC (ppm), respectively.

Botrytis cinerea [2] = assay: Botrytis Gray Mold on Tomato (BOT); format: in vivo; conditions: 300 g/Ha, 5-7 days
Monilinia fructicol = assay: microbe, parasite or virus in culture; format: cell-based; conditions: 72 h, 3 days at room temperature, read-out: MON percent inhibition of fungal growth
Plasmopara viticola = assay: Downy Mildew of Grapes (GDM); format: in vivo; conditions: 300 g/Ha; 7-8 days; grape
Phytophthora infestans [3] = format: in vivo; conditions: 300 g/Ha; applied two days after inoculation (curative); tomato
Cercospora beticola = assay: microbe, parasite or virus in culture; format: cell-based; conditions: 72 h, 3 days at room temperature, read-out: CER percent inhibition of fungal growth
[4] = Tobacco root assay for phytotoxicity (in vitro root elongation); conditions: 7 days, 27° C., read-out: Tob. EC50
Method: The compounds of Examples 1-20 were tested in vitro for fungicidal activity and phytotoxicity.
B. The compounds were tested in vitro for phytotoxicity in a tobacco root elongation assay.
Tobacco root assay for Phytotoxicity:
A dilution series of test compound was prepared in dimethylsulfoxide and 20 ul of each dilution was added to 20 ml of molten nutrient medium, consisting of Murashige and Skoog salt base, 2% sucrose and 1% agar, to give the desired concentrations of test compound. The mixtures were poured immediately into 9 cm diameter petri dishes. Surface-sterilized tobacco seeds were placed on each plate (20 seeds per plate) and the plates incubated in a vertical position in a 27° C. incubator with a 16 hour photoperiod. After 7 days the mean root lengths were calculated, and EC50 values determined from dose response curves.
Results of the tobacco root assay are set forth below in Table 3 as Tob. EC50 (ppm).

Phytophthora infestans [5] = format: in vivo; conditions: 300 g/Ha; 6 days after inoculation; tomato
Rhizoctonia solani = assay: microbe, parasite or virus in culture; format: cell-based; conditions: 72 h, 3 days at room temperature, read-out: RHI percent inhibition of fungal growth

## CCC(C)(NC(=O)c1cc(C)cc(C=NOC)c1)C(=O)CCl (stereo not shown) [Example 12, N-[3'-(1'-chloro-3'-methyl-2'-oxopentan)]-3-methoxyiminomethyl-5-methylbenzamide]
Tomato plants
  phytotoxicity score, Tomato: 0
Botrytis cinerea [1]
  IC50: 0.28 µg/mL (≈ 0.862 µM)
Botrytis cinerea [2]
  BOT percent disease control: 100%
Monilinia fructicol
  inhibition at 25 ppm: 100%
Plasmopara viticola
  GDM percent disease control: 100%
Phytophthora infestans [3]
  TLC percent disease control: 99%
Cercospora beticola
  inhibition at 25 ppm: 100%
[4]
  IC50 at 168 h: 0.38 µg/mL (≈ 1.17 µM)
Phytophthora infestans [5]
  TLB percent disease control: 100%
Rhizoctonia solani
  inhibition at 25 ppm: 0%
